The nature of data set [1]: Aqueous humor pharmacokinetics after topical bimatoprost (study PK10130). It is filed as in vivo. To be noted: dog; topical bimatoprost 0.03% QD; LLOQ 0.200 ng/mL (AGN-192024).
A short description of data set [2]: Systemic pharmacokinetics after topical bimatoprost (study PK-98-119). It counts as in vivo. The note with it: human; topical bimatoprost 0.03% QD.
The nature of data set [3]: Systemic pharmacokinetics after topical bimatoprost (study 6177-110). It is filed as in vivo. To be noted: monkey, blood, LLOQ 0.100 ng/mL (AGN-191522).
The nature of data set [4]: Systemic pharmacokinetics after intracameral Bimatoprost SR Gen 1 (study TX09051). It is filed as in vivo. The note with it: monkey; intracameral 30 μg (Gen 1).
For data set [5] the following is noted: human; topical bimatoprost 0.03% QD; cited from earlier work.
Data set [6] in a line: Ocular pharmacokinetics after topical bimatoprost (study PK-98-003). To be noted: monkey; topical bimatoprost 0.1% QD. It counts as in vivo.
A short description of data set [7]: Ocular pharmacokinetics after topical bimatoprost (study PK-97-032). It counts as in vivo. The note with it: monkey; topical bimatoprost 0.1% BID.
A short description of data set [8]: Systemic pharmacokinetics after intracameral Bimatoprost SR (study TX12102). It is filed as in vivo. To be noted: dogs; intracameral Bimatoprost SR 10, 15 & 20 μg; blood; LLOQ 0.025 ng/mL (AGN-192024), 0.05 ng/mL (AGN-191522).
The subject of another data set is glaucoma patients. Put plainly: Phase 1/2 prospective 24-month paired-eye clinical trial of BimSR (Example 1). It is filed as in vivo, human. To be noted: month 24, topical bimatoprost solution 0.03% once a day. The procedure:
A phase 1/2, prospective, 24-month, paired-eye clinical trial was conducted in 75 glaucoma patients with study eye baseline mean TOP of 25.2 (range 22-36) mmHg after washout. An intraocular implant having the composition as described in US Patent Publication No. 2015-0118279 as formulation 2, as described in TABLE 1 of the specification (6, 10, 15, or 20 μg dose strength) was administered intracamerally in the study eye; the fellow eye was treated with topical bimatoprost solution 0.03% once a day. Long-term TOP-lowering effect was assessed by TOP, time to additional TOP-lowering treatment, and percentage of patients without additional TOP-lowering treatment. Patients were permitted rescue topical medication or a single repeat treatment with BimSR. Results are presented for the 10 and 15 μg dose strengths of BimSR (n=21 for each) that are continuing in development.
Up to 4 and 6 months, 95.2% and 66.7% of patients, respectively, were controlled on the initial BimSR 10 or 15 μg treatment without need for rescue medication or implant retreatment. The median time to additional TOP-lowering treatment after BimSR administration was 38-39 weeks.
A single administration of BimSR 10 or 15 μg controlled TOP up to 6 months in 66.7% of patients and 23.8% of patients at 24 months.

The subject of data set [9] is prostaglandin (PG) sensitive receptors. To be noted: cited from earlier work.

Like-named read-outs stand apart in the source and are kept apart here.

For the compound `O=C(O)CCC/C=C\C[C@@H]1[C@@H](/C=C/[C@@H](O)CCc2ccccc2)[C@H](O)C[C@@H]1O` [AGN-191522, bimatoprost acid], the “Aqueous Humor Concentration” value in data set [1] was 2.0 ng/mL; in data set [5], 8.55 ng/mL. For the same compound, the “Systemic Concentration” value in data set [2] was 2.41 ng/mL; in data set [3] (topical bimatoprost 0.03% QD), “BLQ^e”; in data set [3] (topical bimatoprost 0.1% BID) it was “BLQ^e”; in data set [4] it was 0.165 ng/mL.
In the case of `CCNC(=O)CCC/C=C\C[C@@H]1[C@@H](/C=C/[C@@H](O)CCc2ccccc2)[C@H](O)C[C@@H]1O` [AGN-192024, bimatoprost], the “Aqueous Humor Concentration” value in data set [1] was “BLQ^d”; in [6], 34.5 ng/mL; in data set [5], 2.37 ng/mL; in data set [7], 13.0 ng/mL. Moreover, the “Systemic Concentration” value in data set [2] is given as 0.0822 ng/mL; in data set [3] (topical bimatoprost 0.03% QD), 0.397 ng/mL; in data set [3] (topical bimatoprost 0.1% BID), 1.92 ng/mL; in data set [4] it was 0.280 ng/mL; in data set [8] it was “BLQ^a”. In addition, the figures for the “Tissues Concentration Cornea” value in [6] and in data set [7] were 558 ng/g and 2890 ng/g, respectively. In addition, the “Tissues Concentration ICB” value is 797 ng/g in [6] and 1369 ng/g in data set [7]. Further, the “mean (SD) TOP (intraocular pressure)” value with glaucoma patients (fellow eyes of BimSR 10 μg group) is 16.4 (2.1) mmHg; in the data set with glaucoma patients (fellow eyes of BimSR 15 μg group), 15.4 (2.4) mmHg. The “interaction with prostaglandin (PG) sensitive receptors” value in data set [9] was “no meaningful interaction”.

Source of the values: patent US20240225893A9, “SUSTAINED-RELEASE IMPLANTS FOR LOWERING INTRAOCULAR PRESSURE WITH EXTENDED DURATION OF EFFECT” (Allergan, Inc., priority 2017, published 2024).
